The target of this assay is T1, Human ATX protein (Homo sapiens, UniProt Q13822).
T1 construct: made in house
As to the kind of experiment: ATX biochemical FRET assay with FS-3 substrate. As to conditions: ATX 1.0 μg/mL, 30 minutes pre-incubation, 2 hours at room temperature. An excerpt: ATX (Autotaxin) is a 125 KDa glycoprotein with lysophospholipase D (LPLD) activity that generates the bioactive lipid lysophosphatidic acid (LPA) from lysophosphatidylcholine (LPC). The ATX biochemical assay utilizes a FRET (fluorescence resonance energy transfer) technology platform. The fluorescence signal of FRET substrate FS-3 is quenched due to intra-molecular FRET of a fluorophore to a non-fluorescing quencher (Ferguson, C. G., et al., Org Lett. 2006 May 11; 8(10): 2023-2026, which is incorporated by reference in its entirety). ATX catalyzes the hydrolysis of the substrate which separates the dabsyl quencher from the fluorescein reporter, which becomes fluorescent. The reaction is monitored by a SpectraMax M5 (Molecular Devices, Sunnyvale, Calif.) with at excitation wavelength 485 nm and emission wavelength […].
Fatty acid free-BSA (Sigma A8806): 10 mg/mL in H2O, stored at 4° C.
2×ATX assay buffer: 100 mM Tris, 280 mM NaCl, 10 mM KCl, 2 mM CaCl2, 2 mM MgCl2, pH 7.4.
Human ATX protein: expressed and purified in house. Stored at −80° C.
Substrate FS-3 (Echelon, L-2000): 100 μg in 77.74 μL H2O (1 mM stock), stored at −20° C.
384-well flat bottom plates—Corning #3575.
Compound dilution—All compounds were provided at 10 mM in 100% DMSO. In the first well, 2 μL of 10 mM compound was added to 78 μL of DMSO (1:40 dilution). In subsequent wells 3-fold dilution (total 10 dilutions) were performed.
1×ATX assay buffer was made up with a final concentration of 1 mg/mL fatty acid free-BSA using 2×ATX assay buffer, 10 mg/ml fatty acid free-BSA and ddH2O.
ATX protein was diluted with 1×ATX assay buffer to a concentration of 1.32 μg/mL (1.32×). 38 μL was added per well to the assay plate. The final concentration of ATX in the reaction as 1.0 μg/mL.
2 μL per well of compounds was transferred to provide the desired concentration. The plate was centrifuged, then incubated at room temperature for 30 minutes on the shaker.
Then, 10 μL was added per well to the assay plate. […] The plate was centrifuged. The plate was kept shaking at room temperature for 2 hours. Because FS-3 substrate is light sensitive, plates were kept covered and protected from light.
Fluorescence was measured using SpectraMax M5 (excitation at 485 nm/emission at 538 nm, top read).

[1] abbreviates: FRET substrate FS-3 2 μM, read-out: IC50.

Structures are written as SMILES. Like-named read-outs stand apart in the source and are kept apart here.

Usually IC50 stands for the concentration needed to halve the response being measured. Consider `CC[C@H]1CC[C@@H](Oc2ccc3ccc(C(C)N4CCC(C(=O)O)CC4)cc3c2C(F)(F)F)CC1` (stereo partly drawn) [Example 57, 1-(1-(7-((cis-4-ethylcyclohexyl)oxy)-8-(trifluoromethyl)naphthalen-2-yl)ethyl)piperidine-4-carboxylic acid], for which the IC50 under setting [1] is no more than 100 nM.
Consider `CC[C@H]1CC[C@@H](Oc2ccc3ccc(C(C)N4CCC[C@H](CC(=O)O)C4)cc3c2C(F)(F)F)CC1` (stereo partly drawn) [Example 58, 2-((3R)-1-(1-(7-((cis-4-ethylcyclohexyl)oxy)-8-(trifluoromethyl)naphthalen-2-yl)ethyl)piperidin-3-yl)acetic acid], for which the IC50 under setting [1] is no more than 250 nM.
On the same count and under the same terms, then `CC[C@H]1CC[C@@H](Oc2ccc3ccc(C(C)NC4CC(C(=O)O)C4(C)C)cc3c2C(F)(F)F)CC1` (stereo partly drawn) [Example 59, 3-((1-(7-((cis-4-ethylcyclohexyl)oxy)-8-(trifluoromethyl)naphthalen-2-yl)ethyl)amino)-2,2-dimethylcyclobutanecarboxylic acid], with no more than 100 nM; and `CCC(c1ccc2ccc(O[C@H]3CC[C@@H](CC)CC3)c(C(F)(F)F)c2c1)N1CCC(C(=O)O)CC1` (stereo partly drawn) [Example 60, 1-(1-(7-((cis-4-ethylcyclohexyl)oxy)-8-(trifluoromethyl)naphthalen-2-yl)propyl)piperidine-4-carboxylic acid], with no more than 250 nM.
Same read-out and setting: then `CCC(c1ccc2ccc(O[C@H]3CC[C@@H](CC)CC3)c(C(F)(F)F)c2c1)N1CCC[C@H](CC(=O)O)C1` (stereo partly drawn) [Example 61, 2-((3R)-1-(1-(7-((cis-4-ethylcyclohexyl)oxy)-8-(trifluoromethyl)naphthalen-2-yl)propyl)piperidin-3-yl)acetic acid], with no more than 250 nM.
With `CC[C@H]1CC[C@@H](Oc2ccc3ccc(C(C)N4C5CCC4CC(C(=O)O)C5)cc3c2C(F)F)CC1` (stereo partly drawn) [Example 63, 8-(1-(8-(difluoromethyl)-7-((cis-4-ethylcyclohexyl)oxy)naphthalen-2-yl)ethyl)-8-azabicyclo[3.2.1]octane-3-carboxylic acid], the half-inhibitory concentration (IC50) (IC50, FRET substrate FS-3 2 μM) is no more than 100 nM.
Turning to `CC[C@H]1CC[C@@H](Oc2ccc3ccc(C(C)N4C5CCC4CC(C(=O)O)C5)cc3c2Cl)CC1` (stereo partly drawn) [Example 65, 8-(1-(8-chloro-7-((cis-4-ethylcyclohexyl)oxy)naphthalen-2-yl)ethyl)-8-azabicyclo[3.2.1]octane-3-carboxylic acid], the IC50 (IC50, FRET substrate FS-3 2 μM) was no more than 250 nM.
Same read-out and setting: as for `CC[C@H]1CC[C@@H](Oc2ccc3ccc(C(C)N4C5CCCC4CC(C(=O)O)C5)cc3c2Cl)CC1` (stereo partly drawn) [Example 66, 9-(1-(8-chloro-7-((cis-4-ethylcyclohexyl)oxy)naphthalen-2-yl)ethyl)-9-azabicyclo[3.3.1]nonane-3-carboxylic acid], the figure is no more than 250 nM.
On to `CC[C@H]1CC[C@@H](Oc2ccc3ccc(C(C)N[C@H]4C[C@@H](C(=O)O)C4(C)C)cc3c2Cl)CC1` (stereo partly drawn) [Example 67, (1R,3S)-3-((1-(8-chloro-7-((cis-4-ethylcyclohexyl)oxy)naphthalen-2-yl)ethyl)amino)-2,2-dimethylcyclobutanecarboxylic acid], for which the concentration for half-maximal inhibition (IC50) under setting [1] was no more than 250 nM.
In turn, `CC[C@H]1CC[C@@H](Oc2ccc3ccc(CN4C5CCC4CC(C(=O)O)C5)cc3c2C#N)CC1` (stereo partly drawn) [Example 70, 8-((8-cyano-7-((cis-4-ethylcyclohexyl)oxy)naphthalen-2-yl)methyl)-8-azabicyclo[3.2.1]octane-3-carboxylic acid] registered an IC50 (IC50, FRET substrate FS-3 2 μM) of no more than 100 nM.
In turn, `CC[C@H]1CC[C@@H](Oc2ccc3ccc(CN4C5CCCC4CC(C(=O)O)C5)cc3c2C#N)CC1` (stereo partly drawn) [Example 71, 9-((8-cyano-7-((cis-4-ethylcyclohexyl)oxy)naphthalen-2-yl)methyl)-9-azabicyclo[3.3.1]nonane-3-carboxylic acid] gave an IC50 (IC50, FRET substrate FS-3 2 μM) of no more than 100 nM.
With `CC[C@H]1CC[C@@H](Oc2ccc3ccc(C(C)N4CCC(C(=O)O)CC4)cc3c2C#N)CC1` (stereo partly drawn) [Example 72, 1-(1-(8-cyano-7-((cis-4-ethylcyclohexyl)oxy)naphthalen-2-yl)ethyl)piperidine-4-carboxylic acid], the IC50 under setting [1] was no more than 500 nM.

The record behind these values is patent publication US10017506B2, “ATX modulating agents” (BIOGEN MA INC., priority 2012, dated 2018).
